{"source": "patent US20110207726A1", "about": "“Inhibitors of Human Cathepsin L, Cathepsin B, and Cathepsin S” (The Trustees of the University of Pennsylvania, priority 2008, published 2011)", "key": {"[1]": {"molecular_target": "T1, Human spleen cathepsin S (Homo sapiens, UniProt P25774)", "T1 construct": "Human spleen cathepsin S (Calbiochem 219344, 40 ng/mL); purchased Calbiochem 219344; host or cells: human spleen", "T1 sequence (P25774 115-331)": "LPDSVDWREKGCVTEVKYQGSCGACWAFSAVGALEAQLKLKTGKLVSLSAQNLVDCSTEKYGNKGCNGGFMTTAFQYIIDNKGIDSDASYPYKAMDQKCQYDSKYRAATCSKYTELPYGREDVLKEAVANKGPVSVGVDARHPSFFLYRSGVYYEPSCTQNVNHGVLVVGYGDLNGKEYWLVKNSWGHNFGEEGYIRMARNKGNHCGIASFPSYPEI", "test": "Cathepsin S assay, IC50 determination", "type": "biochemical", "in_short": "(§1)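 Spleen cathepsin S (40 ng/mL) with 15 microM Z-Phe-Arg-AMC and liver cathepsin B (65 ng/mL) with 15 microM Z-Arg-Arg-AMC, in 20 mM sodium acetate, 1 mM EDTA, 5 mM cysteine, pH 5.5. AMC fluorescence release monitored; IC50 measured in triplicate.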"}, "[2]": {"molecular_target": "human cathepsin L (Homo sapiens, UniProt P07711)", "sequence (P07711 114-288 limits assumed)": "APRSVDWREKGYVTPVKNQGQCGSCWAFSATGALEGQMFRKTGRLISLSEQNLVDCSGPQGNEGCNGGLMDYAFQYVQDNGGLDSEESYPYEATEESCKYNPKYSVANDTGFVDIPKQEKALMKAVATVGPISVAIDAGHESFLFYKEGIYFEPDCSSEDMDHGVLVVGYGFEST", "sequence (P07711 292-333 limits assumed)": "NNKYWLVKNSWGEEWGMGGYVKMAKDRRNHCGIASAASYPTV", "test": "Preincubation studies, cathepsin L", "type": "biochemical", "parameters": "8.7 ng/mL human liver cathepsin L (Calbiochem 219402); purchased Calbiochem 219402; host or cells: human liver", "method": "To establish the time-dependent mechanism of inhibition, enzyme and inhibitor were preincubated for various time points in a 96-well microplate prior to the addition of substrate to initiate the enzymatic reaction. 47.5 μL of cathepsin L (18.3 ng/mL) and 47.5 μL of Compound No. 1 at various concentrations in assay buffer were incubated up to 4 hours. Five μL of Z-Phe-Arg-AMC substrate were then added and the plate was monitored for AMC hydrolysis on the Envision fluorescent microplate reader."}, "[3]": {"molecular_target": "T2, human liver cathepsin L (Homo sapiens, UniProt P07711)", "T2 construct": "8.7 ng/mL human liver cathepsin L (Calbiochem 219402); purchased Calbiochem 219402; host or cells: human liver", "T2 sequence (P07711 114-288 limits assumed)": "as the sequence (P07711 114-288 limits assumed) above", "T2 sequence (P07711 292-333 limits assumed)": "as the sequence (P07711 292-333 limits assumed) above", "test": "Cathepsin L assay, IC50 determination", "type": "biochemical", "in_short": "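Enzyme (300 pM) pre-activated for 30 min in 20 mM sodium acetate, 1 mM EDTA, 5 mM cysteine, pH 5.5, then incubated 1 h at room temperature with 1 microM Z-Phe-Arg-AMC and compound. Fluorescent read-out on a microplate reader; IC50 in triplicate.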"}, "[4]": {"molecular_target": "T3, Human liver cathepsin B (Homo sapiens, UniProt P07858)", "T3 construct": "Human liver cathepsin B (Calbiochem 219362, 65 ng/mL); purchased Calbiochem 219362; host or cells: human liver", "test": "Cathepsin B assay, IC50 determination", "type": "biochemical", "in_short": "as §1"}, "[5]": {"molecular_target": "T4, human cathepsin K (Homo sapiens, UniProt P43235)", "T4 construct": "purchased Calbiochem 342001", "T4 sequence (P43235 115-329)": "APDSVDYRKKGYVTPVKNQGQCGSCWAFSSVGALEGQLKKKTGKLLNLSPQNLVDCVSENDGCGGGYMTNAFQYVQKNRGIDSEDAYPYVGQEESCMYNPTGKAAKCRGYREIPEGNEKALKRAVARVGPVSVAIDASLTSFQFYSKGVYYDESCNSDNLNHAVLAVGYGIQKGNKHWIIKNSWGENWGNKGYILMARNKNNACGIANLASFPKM", "test": "Selectivity assay, cathepsin K", "type": "biochemical", "method": "Compound No. 1 was assayed for inhibition against papain and cathepsins B, G, K, S, and V. Papain from Carica papaya (Calbiochem 5125, 11 ng/mL), human cathepsin K (Calbiochem 342001, 35 ng/mL), human spleen cathepsin S (Calbiochem 219344, 40 ng/mL), and human cathepsin V (Calbiochem 219467, 39 ng/ml) were assayed using Z-Phe-Arg-AMC substrate at 20 μM, 20 μM, 15 μM, and 1 μM, respectively. Human liver cathepsin B (Calbiochem 219362, 65 ng/mL) was assayed using 15 μM Z-Arg-Arg-AMC substrate (Bachem I-1135). Human neutrophil cathepsin G (Calbiochem 219373, 4.2 μg/mL) was assayed using 15 μM Suc-Ala-Ala-Pro-Phe-AMC substrate (Sigma S9761). All reactions were performed in 20 mM sodium acetate buffer containing 5 mM cysteine and 1 mM EDTA, pH 5.5. Reaction progress was monitored using the Envision microplate reader. IC50 values were measured in triplicate."}, "[6]": {"test": "Stability in DMSO and cathepsin L assay buffer", "type": "physicochemical", "from_the_text": "Some variability in IC50 values determined for Compound (iii) prompted us to explore the stability of both Compound No. 1 and Compound (iii) in solvents relevant to the bioassay."}}, "note": "Like-named read-outs stand apart in the source and are kept apart here."}
{"smiles": "CCc1ccccc1NC(=O)CSC(=O)NNC(=O)[C@H](Cc1c[nH]c2ccccc12)NC(=O)OC(C)(C)C", "note": "[Compound No. 1]", "values": [{"measurement": "Selectivity Index @ 10 min", "setting": "[1]; Cathepsin S vs cathepsin L, 10 min", "result": 7}, {"measurement": "Selectivity Index @ 30 min", "setting": "[1]; Cathepsin S vs cathepsin L, 30 min", "result": 10}, {"measurement": "Selectivity Index @ 60 min", "setting": "[1]; Cathepsin S vs cathepsin L, 60 min", "result": 13}, {"measurement": "Selectivity Index @ 90 min", "setting": "[1]; Cathepsin S vs cathepsin L, 90 min", "result": 14}, {"measurement": "Selectivity Index", "setting": "[1]; Cathepsin S vs cathepsin L, over 10-90 min", "result": "7-14"}, {"measurement": "IC50", "setting": "[1]; Cathepsin S, no preincubation, 30 min, read-out: IC50 @ 30 min", "result": "745 ± 10", "unit": "nM"}, {"measurement": "IC50", "setting": "[1]; Cathepsin S, no preincubation, 60 min, read-out: IC50 @ 60 min", "result": "724 ± 11", "unit": "nM"}, {"measurement": "IC50", "setting": "[1]; Cathepsin S, no preincubation, 90 min, read-out: IC50 @ 90 min", "result": "721 ± 29", "unit": "nM"}, {"measurement": "IC50", "setting": "[1]; IC50 @ 10 min, Cathepsin S, human spleen, no preincubation, 10 min", "result": "1110 ± 134", "unit": "nM"}, {"measurement": "IC50", "setting": "[1]; Table 1, read-out: IC50 Cat S", "result": 960, "unit": "nM"}, {"measurement": "IC50", "setting": "[2]; IC50 against human cathepsin L after 1 hour preincubation, preincubation with enzyme 1 h prior to substrate addition", "result": "7.5 ± 1", "unit": "nM"}, {"measurement": "IC50", "setting": "[2]; IC50 against human cathepsin L after 2 hours preincubation, preincubation with enzyme 2 h", "result": "4.2 ± 0.6", "unit": "nM"}, {"measurement": "IC50", "setting": "[2]; preincubation with enzyme 4 h, read-out: IC50 against human cathepsin L after 4 hours preincubation", "result": "1 ± 0.5", "unit": "nM"}, {"measurement": "Selectivity Index @ 10 min", "setting": "[3]; Cathepsin L, human liver, 10 min", "result": 1}, {"measurement": "IC50", "setting": "[3]; Cathepsin L, human liver, no preincubation, 30 min, read-out: IC50 @ 30 min", "result": "75 ± 5", "unit": "nM"}, {"measurement": "IC50", "setting": "[3]; Cathepsin L, human liver, no preincubation, 60 min, read-out: IC50 @ 60 min", "result": "56 ± 4", "unit": "nM"}, {"measurement": "IC50", "setting": "[3]; Cathepsin L, human liver, no preincubation, 90 min, read-out: IC50 @ 90 min", "result": "50 ± 3", "unit": "nM"}, {"measurement": "Selectivity Index @ 30 min", "setting": "[3]; Cathepsin L, 30 min", "result": 1}, {"measurement": "Selectivity Index @ 60 min", "setting": "[3]; Cathepsin L, 60 min", "result": 1}, {"measurement": "Selectivity Index @ 90 min", "setting": "[3]; Cathepsin L, 90 min", "result": 1}, {"measurement": "Selectivity Index", "setting": "[3]; Cathepsin L, IC50 protease / IC50 cathepsin L, over 10-90 min", "result": 1}, {"measurement": "IC50", "setting": "[3]; IC50 @ 10 min, Cathepsin L, human liver, no preincubation, 10 min", "result": "155 ± 12", "unit": "nM"}, {"measurement": "IC50", "setting": "[3]; Table 1, read-out: IC50 Cat L", "result": 56, "unit": "nM"}, {"measurement": "IC50", "setting": "[3]; Table 17, n = 3, C, S or O at the sulfur position, read-out: Cathepsin L inhibitory activity IC50", "result": "56 ± 4", "unit": "nM"}, {"measurement": "IC50", "setting": "[3]; no preincubation of enzyme and inhibitor, read-out: IC50 against cathepsin L (no preincubation)", "result": 56, "unit": "nM"}, {"measurement": "Selectivity Index @ 10 min", "setting": "[4]; Cathepsin B vs cathepsin L, 10 min", "result": 48}, {"measurement": "Selectivity Index @ 30 min", "setting": "[4]; Cathepsin B vs cathepsin L, 30 min", "result": 40}, {"measurement": "Selectivity Index @ 60 min", "setting": "[4]; Cathepsin B vs cathepsin L, 60 min", "result": 45}, {"measurement": "Selectivity Index @ 90 min", "setting": "[4]; Cathepsin B vs cathepsin L, 90 min", "result": 50}, {"measurement": "Selectivity Index", "setting": "[4]; Cathepsin B vs cathepsin L, over 10-90 min", "result": "40-50"}, {"measurement": "IC50", "setting": "[4]; Cathepsin B, no preincubation, 30 min, read-out: IC50 @ 30 min", "result": "2980 ± 295", "unit": "nM"}, {"measurement": "IC50", "setting": "[4]; Cathepsin B, no preincubation, 60 min, read-out: IC50 @ 60 min", "result": "2530 ± 73", "unit": "nM"}, {"measurement": "IC50", "setting": "[4]; Cathepsin B, no preincubation, 90 min, read-out: IC50 @ 90 min", "result": "2510 ± 139", "unit": "nM"}, {"measurement": "IC50", "setting": "[4]; IC50 @ 10 min, Cathepsin B, human liver, no preincubation, 10 min", "result": "7490 ± 693", "unit": "nM"}, {"measurement": "IC50", "setting": "[4]; Table 1, read-out: IC50 Cat B", "result": 4450, "unit": "nM"}, {"measurement": "IC50", "setting": "[5]", "result": "17600 ± 1040", "unit": "nM"}, {"measurement": "Selectivity Index @ 10 min", "setting": "[5]; Cathepsin K vs cathepsin L, 10 min", "result": 114}, {"measurement": "Selectivity Index @ 30 min", "setting": "[5]; Cathepsin K vs cathepsin L, 30 min", "result": 113}, {"measurement": "Selectivity Index @ 60 min", "setting": "[5]; Cathepsin K vs cathepsin L, 60 min", "result": 151}, {"measurement": "Selectivity Index @ 90 min", "setting": "[5]; Cathepsin K vs cathepsin L, 90 min", "result": 137}, {"measurement": "Selectivity Index", "setting": "[5]; Cathepsin K vs cathepsin L, over 10-90 min", "result": "113-151"}, {"measurement": "IC50", "setting": "[5]; Cathepsin K, no preincubation, 30 min, read-out: IC50 @ 30 min", "result": "8460 ± 366", "unit": "nM"}, {"measurement": "IC50", "setting": "[5]; Cathepsin K, no preincubation, 60 min, read-out: IC50 @ 60 min", "result": "8440 ± 140", "unit": "nM"}, {"measurement": "IC50", "setting": "[5]; Cathepsin K, no preincubation, 90 min, read-out: IC50 @ 90 min", "result": "6857 ± 63", "unit": "nM"}, {"measurement": "stability in DMSO", "setting": "[6]; DMSO, room temperature", "result": "completely stable"}, {"measurement": "stability in cathepsin L assay buffer", "setting": "[6]; NaOAc (20 mM), pH 5.5, EDTA (1 mM), cysteine (5 mM)", "result": "completely stable"}]}
